As a reminder, the IC50 is the concentration needed to halve the response being measured.

For the experiment, the target named is TRKA (Homo sapiens (Human), UniProt P04629). Description: Isolated TRK enzyme assay (HTRF KinEASE-TK), TRKA. Format: biochemical. To be noted: read-out: Trka enzyme (IC50).
TRKA, sequence (P04629 441-796): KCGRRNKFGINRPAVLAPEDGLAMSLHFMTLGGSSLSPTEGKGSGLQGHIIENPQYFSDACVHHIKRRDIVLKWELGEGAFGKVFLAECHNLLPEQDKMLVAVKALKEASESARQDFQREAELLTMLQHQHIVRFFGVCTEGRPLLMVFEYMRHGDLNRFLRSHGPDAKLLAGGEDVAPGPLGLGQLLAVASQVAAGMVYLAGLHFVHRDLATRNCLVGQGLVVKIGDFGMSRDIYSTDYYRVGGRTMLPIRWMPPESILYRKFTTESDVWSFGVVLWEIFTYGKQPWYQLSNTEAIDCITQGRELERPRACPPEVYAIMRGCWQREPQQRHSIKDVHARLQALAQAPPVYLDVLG
Take `Cn1cc(C(=O)c2cncc(NC(=O)Cc3ccc4c(c3)CCO4)c2)c2cncnc21` [Example 189, 2-(2,3-dihydro-1-benzofuran-5-yl)-N-{5-[(7-methyl-7H-pyrrolo[2,3-d]pyrimidin-5-yl)carbonyl]pyridin-3-yl}acetamide]: the IC50 stood at 836 nM.
As for `Cn1cc(C(=O)c2cncc(NC(=O)Cc3cc(F)ccc3F)c2)c2cncnc21` [Example 190, 2-(2,5-difluorophenyl)-N-{5-[(7-methyl-7H-pyrrolo[2,3-d]pyrimidin-5-yl)carbonyl]pyridin-3-yl}acetamide], the IC50 is 820 nM.
The same measure for `Cn1cc(C(=O)c2cncc(NC(=O)Cc3ccc(F)cc3F)c2)c2cncnc21` [Example 191, 2-(2,4-difluorophenyl)-N-{5-[(7-methyl-7H-pyrrolo[2,3-d]pyrimidin-5-yl)carbonyl]pyridin-3-yl}acetamide]: 873 nM; for `Cn1cc(C(=O)c2cncc(NC(=O)Cc3cccc(C(F)(F)F)c3F)c2)c2cncnc21` [Example 192, 2-[2-fluoro-3-(trifluoromethyl)phenyl]-N-{5-[(7-methyl-7H-pyrrolo[2,3-d]pyrimidin-5-yl)carbonyl]pyridin-3-yl}acetamide]: 173 nM.
The same measure for `Cn1cc(C(=O)c2cncc(NC(=O)Cc3c(F)cccc3F)c2)c2cncnc21` [Example 193, 2-(2,6-difluorophenyl)-N-{5-[(7-methyl-7H-pyrrolo[2,3-d]pyrimidin-5-yl)carbonyl]pyridin-3-yl}acetamide]: 3570 nM.
The same measure for `Cn1cc(C(=O)c2cncc(NC(=O)Cc3cccc(C(F)(F)F)c3)c2)c2cncnc21` [Example 194, N-{5-[(7-methyl-7H-pyrrolo[2,3-d]pyrimidin-5-yl)carbonyl]pyridin-3-yl}-2-[3-(trifluoromethyl)phenyl]acetamide]: 101 nM; for `Cn1cc(C(=O)c2cncc(NC(=O)Cc3ccc(F)c(F)c3)c2)c2cncnc21` [Example 195, 2-(3,4-difluorophenyl)-N-{5-[(7-methyl-7H-pyrrolo[2,3-d]pyrimidin-5-yl)carbonyl]yridine-3-yl}acetamide]: 835 nM; for `Cn1cc(C(=O)c2cncc(NC(=O)Cc3ccc(OC(F)(F)F)cc3)c2)c2cncnc21` [Example 196, N-{5-[(7-methyl-7H-pyrrolo[2,3-d]pyrimidin-5-yl)carbonyl]yridine-3-yl}-2-[4-(trifluoromethoxy)phenyl]acetamide]: 791 nM.
As for `Cn1cc(C(=O)c2cncc(NC(=O)Cc3cccc(Cl)c3)c2)c2cncnc21` [Example 197, 2-(3-chlorophenyl)-N-{5-[(7-methyl-7H-pyrrolo[2,3-d]pyrimidin-5-yl)carbonyl]yridine-3-yl}acetamide], the IC50 worked out at 430 nM.
The figure for `Cn1cc(C(=O)c2cncc(NC(=O)CCc3ccccc3Cl)c2)c2cncnc21` [Example 198, 3-(2-chlorophenyl)-N-{5-[(7-methyl-7H-pyrrolo[2,3-d]pyrimidin-5-yl)carbonyl]pyridin-3-yl}propanamide] is 2350 nM.
The figure for `CC(C)(C)n1cc(C(=O)c2cncc(NC(=O)Cc3coc(C4CC4)n3)c2)c2cncnc21` [Example 199, N-{5-[(7-tert-butyl-7H-pyrrolo[2,3-d]pyrimidin-5-yl)carbonyl]pyridin-3-yl}-2-(2-cyclopropyl-1,3-oxazol-4-yl)acetamide] is 22.1 nM.
Take `CC(C)(C)n1cc(C(=O)c2cncc(NC(=O)Cc3cccc(S(C)(=O)=O)c3)c2)c2cncnc21` [Example 200, N-{5-[(7-tert-butyl-7H-pyrrolo[2,3-d]pyrimidin-5-yl)carbonyl]pyridin-3-yl}-2-[3-(methylsulfonyl)phenyl]acetamide]: the IC50 is 10.1 nM.
The same measure for `Cc1nn(C)cc1CC(=O)Nc1cncc(C(=O)c2cn(C(C)(C)C)c3ncncc23)c1` [Example 201, N-{5-[(7-tert-butyl-7H-pyrrolo[2,3-d]pyrimidin-5-yl)carbonyl]pyridin-3-yl}-2-(1,3-dimethyl-1H-pyrazol-4-yl)acetamide]: 482 nM; for `Cn1cc(CC(=O)Nc2cncc(C(=O)c3cn(C(C)(C)C)c4ncncc34)c2)cn1` [Example 202, N-{5-[(7-tert-butyl-7H-pyrrolo[2,3-d]pyrimidin-5-yl)carbonyl]pyridin-3-yl}-2-(1-methyl-1H-pyrazol-4-yl)acetamide]: 412 nM.
The figure for `Cn1cc(CC(=O)Nc2cncc(C(=O)c3cn(C(C)(C)C)c4ncncc34)c2)c(C2CC2)n1` [Example 203, N-{5-[(7-tert-butyl-7H-pyrrolo[2,3-d]pyrimidin-5-yl)carbonyl]pyridin-3-yl}-2-(3-cyclopropyl-1-methyl-1H-pyrazol-4-yl)acetamide] is 316 nM; for `C[C@@H](CO)n1cc(C(=O)c2cncc(NC(=O)Cc3cccc(C(F)(F)F)c3)c2)c2cncnc21` [Example 204, N-[5-({7-[(1S)-2-hydroxy-1-methylethyl]-7H-pyrrolo[2,3-d]pyrimidin-5-yl}carbonyl)pyridin-3-yl]-2-[3-(trifluoromethyl)phenyl]acetamide] it is 4.24 nM; for `C[C@H](CO)n1cc(C(=O)c2cncc(NC(=O)Cc3cccc(C(F)(F)F)c3)c2)c2cncnc21` [Example 205, N-[5-({7-[(1R)-2-hydroxy-1-methylethyl]-7H-pyrrolo[2,3-d]pyrimidin-5-yl}carbonyl)pyridin-3-yl]-2-[3-(trifluoromethyl)phenyl]acetamide] it is 12.2 nM.
The figure for `CC(C)c1cn(CC(=O)Nc2cncc(C(=O)c3cn([C@H](C)CO)c4ncncc34)c2)nn1` [Example 206, N-[5-({7-[(1R)-2-hydroxy-1-methylethyl]-7H-pyrrolo[2,3-d]pyrimidin-5-yl}carbonyl)pyridin-3-yl]-2-(4-isopropyl-1H-1,2,3-triazol-1-yl)acetamide] is 123 nM.
For `CC(C)n1ncc(CC(=O)Nc2cncc(C(=O)c3cn([C@H](C)CO)c4ncncc34)c2)c1C(F)(F)F` [Example 207, N-[5-({7-[(1R)-2-hydroxy-1-methylethyl]-7H-pyrrolo[2,3-d]pyrimidin-5-yl}carbonyl)pyridin-3-yl]-2-[1-isopropyl-5-(trifluoromethyl)-1H-pyrazol-4-yl]acetamide], the IC50 came out at 110 nM.
For the compound `C[C@H](CO)n1cc(C(=O)c2cncc(NC(=O)Cc3ccc(C#N)cc3)c2)c2cncnc21` [Example 208, 2-(4-cyanophenyl)-N-[5-({7-[(1R)-2-hydroxy-1-methylethyl]-7H-pyrrolo[2,3-d]pyrimidin-5-yl}carbonyl)pyridin-3-yl]acetamide], the IC50 turned out to be 129 nM.
On to `C[C@H](CO)n1cc(C(=O)c2cncc(NC(=O)Cc3cccc(S(C)(=O)=O)c3)c2)c2cncnc21` [Example 209, N-[5-({7-[(1R)-2-hydroxy-1-methylethyl]-7H-pyrrolo[2,3-d]pyrimidin-5-yl}carbonyl)pyridin-3-yl]-2-[3-(methylsulfonyl)phenyl]acetamide], for which the IC50 worked out at 272 nM.
Turning to `C[C@H](CO)n1cc(C(=O)c2cncc(NC(=O)Cc3ccc4cccnc4c3)c2)c2cncnc21` [Example 210, N-[5-({7-[(1R)-2-hydroxy-1-methylethyl]-7H-pyrrolo[2,3-d]pyrimidin-5-yl}carbonyl)pyridin-3-yl]-2-quinolin-7-ylacetamide], the IC50 was 185 nM.
The figure for `O=C(Cc1ccc(Cl)c(Cl)c1)Nc1cncc(C(=O)c2cn(C3COC3)c3ncncc23)c1` [Example 217, 2-(3,4-dichlorophenyl)-N-{5-[(7-oxetan-3-yl-7H-pyrrolo[2,3-d]pyrimidin-5-yl)carbonyl]pyridin-3-yl}acetamide] is 83.3 nM; for `N#Cc1ccc(CC(=O)Nc2cncc(C(=O)c3cn(C4COC4)c4ncncc34)c2)cc1` [Example 218, 2-(4-cyanophenyl)-N-{5-[(7-oxetan-3-yl-7H-pyrrolo[2,3-d]pyrimidin-5-yl)carbonyl]pyridin-3-yl}acetamide] it is 1210 nM; for `O=C(Cc1ccc(Cl)cc1)Nc1cncc(C(=O)c2cn(C3COC3)c3ncncc23)c1` [Example 219, 2-(4-chlorophenyl)-N-{5-[(7-oxetan-3-yl-7H-pyrrolo[2,3-d]pyrimidin-5-yl)carbonyl]pyridin-3-yl}acetamide] it is 286 nM.
The figure for `O=C(Cc1cccc(Cl)c1)Nc1cncc(C(=O)c2cn(C3COC3)c3ncncc23)c1` [Example 220, 2-(3-chlorophenyl)-N-{5-[(7-oxetan-3-yl-7H-pyrrolo[2,3-d]pyrimidin-5-yl)carbonyl]pyridin-3-yl}acetamide] is 462 nM; for `N#Cc1cccc(CC(=O)Nc2cncc(C(=O)c3cn(C4COC4)c4ncncc34)c2)c1` [Example 221, 2-(3-cyanophenyl)-N-{5-[(7-oxetan-3-yl-7H-pyrrolo[2,3-d]pyrimidin-5-yl)carbonyl]pyridin-3-yl}acetamide] it is 3100 nM.
For the compound `O=C(Cc1ccc2cccnc2c1)Nc1cncc(C(=O)c2cn(C3COC3)c3ncncc23)c1` [Example 222, N-{5-[(7-oxetan-3-yl-7H-pyrrolo[2,3-d]pyrimidin-5-yl)carbonyl]pyridin-3-yl}-2-quinolin-7-ylacetamide], the IC50 was found to be 692 nM.
The same measure for `O=C(Cc1cn2cc(Cl)ccc2n1)Nc1cncc(C(=O)c2cn(C3COC3)c3ncncc23)c1` [Example 223, 2-(6-chloroimidazo[1,2-a]pyridin-2-yl)-N-{5-[(7-oxetan-3-yl-7H-pyrrolo[2,3-d]pyrimidin-5-yl)carbonyl]pyridin-3-yl}acetamide]: 1660 nM; for `O=C(CN1Cc2ccccc2C1=O)Nc1cncc(C(=O)c2cn(C3COC3)c3ncncc23)c1` [Example 224, N-{5-[(7-oxetan-3-yl-7H-pyrrolo[2,3-d]pyrimidin-5-yl)carbonyl]pyridin-3-yl}-2-(1-oxo-1,3-dihydro-2H-isoindol-2-yl)acetamide]: 3100 nM.
The same measure for `CC(C)(CO)n1cc(C(=O)c2cncc(NC(=O)Cc3ccc(C#N)cc3)c2)c2cncnc21` [Example 225, 2-(4-cyanophenyl)-N-(5-{[7-(2-hydroxy-1,1-dimethylethyl)-7H-pyrrolo[2,3-d]pyrimidin-5-yl]carbonyl}pyridin-3-yl)acetamide]: 27.7 nM.

For the origin of these results see US8846698B2, “Pyrrolo[2,3-d]pyrimidine tropomysin-related kinase inhibitors” (Pfizer Limited, priority 2011, dated 2014).
